Measurements as given in publication PMC5359770 (ACS chemical biology, 2016).

Tests used:
APT2 = APT2 (Homo sapiens, UniProt O95372); assay type: binding
[1] = cited from earlier work
[2] = target: APT2 triple mutant L78I/A85S/P86Q (Homo sapiens, UniProt O95372, A85S/L78I/P86Q); assay type: biochemical
APT2-L78I = APT2-L78I (Homo sapiens, UniProt O95372, L78I); conditions: ResOAc substrate
APT2-L78I, sequence (O95372 whole entry L78I): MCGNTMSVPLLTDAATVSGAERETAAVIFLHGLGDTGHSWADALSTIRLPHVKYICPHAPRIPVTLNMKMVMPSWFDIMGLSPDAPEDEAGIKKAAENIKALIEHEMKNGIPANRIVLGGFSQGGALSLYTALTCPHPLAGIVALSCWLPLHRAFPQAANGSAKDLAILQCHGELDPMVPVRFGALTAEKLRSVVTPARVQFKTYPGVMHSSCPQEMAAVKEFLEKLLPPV

APT2, sequence (O95372 whole entry): as the sequence (O95372 whole entry L78I) above, with I78L counted along it
APT2 triple mutant L78I/A85S/P86Q, sequence (O95372 whole entry L78I/A85S/P86Q): as the sequence (O95372 whole entry L78I) above, with A85S, P86Q counted along it

In the case of `CCCCCCCC/C=C\CCCCCCCC(=O)OC[C@@H](O)COP(=O)([O-])OCC[N+](C)(C)C` [1-oleoyl-2-hydroxy-sn-glycero-3-phosphocholine], the IC50 (APT2) is reported as 4.3 ± 0.4 µM.

With `COc1ccc(N2CCN(C(=O)c3cc4c(s3)-c3ccccc3[S+]([O-])C4)CC2)cc1` (stereo not drawn) [ML349-sulfoxide] the “binding / inhibition of APT2 (in words)” value (APT2) was “some residual inhibition”.

For `CCCCCCCC/C=C\CCCCCCCC(=O)O` [oleic acid], the “critical micelle concentration (CMC)” value [1] is listed as 6 µM and the IC50 (APT2) is listed as 9.9 ± 0.6 µM.

With ML348 the “potency (in words)” value [2] was “improved ML348 potency” and the Ki (APT2-L78I) was 5.8 µM.
